Converted amounts (≈) assume the structure as drawn.
These compounds were tested on Mycobacterium tuberculosis (assay: Antimycobacterial activity against InhA overexpressing Mycobacterium tuberculosis InhA-OE).
Format: functional

Q: With COc1ccc2c(c1)nc(NC(=O)c1cc(C(N)=S)ccn1)n2C as the compound, how does the MIC read?
A: 0.72 µM (≈ 0.246 µg/mL)

Q: For Cn1c(NC(=O)c2cc(C(N)=S)ccn2)nc2cc(O)ccc21, which MIC is on record?
A: 0.54 µM (≈ 0.177 µg/mL)

Q: How did the MIC turn out when Cn1cc(O)nc1NC(=O)c1cc(C(N)=S)ccn1 was run?
A: 1.99 µM (≈ 0.552 µg/mL)

Q: How did the MIC turn out when Cn1cc(C#N)nc1NC(=O)c1cc(C(N)=S)ccn1 was run?
A: 2.53 µM (≈ 0.724 µg/mL)

Q: With NNC(=O)c1ccncc1 [ISONIAZID] as the compound, how does the MIC read?
A: 0.74 µM (≈ 0.101 µg/mL)

— ChEMBL document CHEMBL5143581, “Design, synthesis and molecular docking studies of imidazole and benzimidazole linked ethionamide derivatives as inhibitors of InhA and antituberculosis agents” (Bioorg Med Chem Lett, 2022)
